Here are results for 73 molecules from PubChem BioAssay AID743472 (Broad Institute, 2014).

“And” between values parts separate entries of the source, which are not always exact repeats. Identical values can stand only once. The source made the active and inactive calls.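 How the source made its calls: active means fitted curve drops past -35% activity change at a concentration no higher than twice the top valid tested dose; inconclusive means no clear call, values can overlap the other calls; inactive means the rest, including activity opposite to the expected direction.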

The test system of assay [1] is A549 viability, CellTiter-Glo ATP luminescence, 72 h. As to the kind of experiment: A549 cell cytotoxicity, dose response, cytotoxicity control, luminescence, dry powder, set 12 (AID 743472).
Test in assay [2]: as above
The following applies: A549 viability, CellTiter-Glo ATP luminescence, 72 h.

As for `COc1ccccc1-c1nnc2n1N=C(c1ccc3c(c1)OCO3)CS2`, the AC35 in assay [1] is 0.102 µM. On to `N#CC1=C(N)Oc2cc(N)ccc2C1c1cccc(F)c1` (stereo not drawn), for which, in assay [1], the AC35 was 10.8 µM. Take `COc1cc(Nc2ncc3c(n2)-c2ccc(Cl)cc2C(c2c(F)cccc2OC)=NC3)ccc1C(=O)O`: the activity change, negative = cytotoxicity in assay [2] (at 26 µM (top of the series)) was -19.8% (inactive).

Take `N#CC1=C(N)Oc2ccc3ccccc3c2C1c1cccc(F)c1` (stereo not drawn): the AC35 in assay [1] is 3.88 µM. With `CC(C)(O)CCc1ccc(O)c2c(=O)c3c(O)c4c(cc3oc12)O[C@H]1OC=C[C@@]41O`, in assay [2] (at 13.5 µM (top of the series)), the activity change, negative = cytotoxicity is -4.12% (inactive).

On to `COc1ccc(-c2ccc3c(c2)[C@H]2[C@H](CCN2S(=O)(=O)c2ccc(OC)cc2)[C@@H](CO)N3C)cc1`, for which the AC35 in assay [1] was 9.11 µM. In the case of `CN1c2ccc(-c3ccc(C#N)cc3)cc2[C@H]2[C@H](CCN2S(=O)(=O)c2ccc(F)cc2)[C@H]1CO`, the activity change, negative = cytotoxicity in assay [2] (at 26 µM (top of the series)) was 10.6% (inactive). For the molecule `COc1ccc(-c2cc(NC=O)c3ncc(-c4ccc(OC)c(OC)c4)n3c2)cc1`, the AC35 in assay [1] is 1.18 µM. On to `CN1c2ccc(-c3ccc(C#N)cc3)cc2[C@H]2[C@H](CCN2S(=O)(=O)c2cccc(F)c2)[C@H]1CO`, for which, in assay [1], the AC35 is 6.56 µM.

For the molecule `COc1ccccc1C1C(C#N)=C(N)Oc2cc(N)ccc21` (stereo not drawn), the activity change, negative = cytotoxicity in assay [2] (at 26 µM (top of the series)) is 3.41% (inactive).

In the case of `N#Cc1ccc(-c2ccc3c(c2)[C@H]2[C@H](CCN2S(=O)(=O)c2cccc(F)c2)[C@@H](CO)N3)cc1`, the AC35 in assay [1] was 21.4 µM.

For `Cc1ccc(S(=O)(=O)N2CC[C@@H]3[C@@H](CO)Nc4ccc(-c5ccc(C#N)cc5)cc4[C@@H]32)cc1`, the activity change, negative = cytotoxicity in assay [2] (at 26 µM (top of the series)) was -24.8% (inactive). Consider `N#CC1=C(N)Oc2cc(N)ccc2C1c1cccc(Br)c1` (stereo not drawn), for which the AC35 in assay [1] was 0.488 µM. On to `CCOC(=O)CCNc1cc(N2CCc3ccccc3CC2)nc(-c2ccccn2)n1`, for which the AC35 in assay [1] is 37.2 µM. Take `O=C(Cc1ccc(-c2ccc(OCCN3CCOCC3)cc2)cn1)NCc1ccccc1`: the AC35 in assay [1] is 0.0854 µM. On the same count and under the same terms, the result for `CN(C)c1ccc2c(c1)OC(N)=C(C#N)C2c1cccc(F)c1` (stereo not drawn) reads 0.0738 µM; that for `COc1cccc(C2C(C#N)=C(N)Oc3cc(N)ccc32)c1` (stereo not drawn), 4.76 µM; that for `Cc1c([C@H](C(Cl)Cl)[C@H](O)[C@H]2C[C@H](C)C(=O)O2)ccc2c1C(=O)[C@H]1[C@H]2C[C@@H](Br)[C@@]23O[C@@H](CO[C@H]2O)C[C@]13C`, 3.44 µM. Regarding `O=C(Nc1c(Cl)cncc1Cl)c1ccc(OC(F)F)c(OCC2CC2)c1`, the activity change, negative = cytotoxicity in assay [2] (at 26 µM (top of the series)) was 2.06% (inactive). `Clc1ccc(-c2cnc3ccc(-c4ccccc4)cn23)cc1`: the activity change, negative = cytotoxicity in assay [2] (at 6 µM (top of the series)) was 9.24% (inactive). With `COc1ccc(S(=O)(=O)N2CC[C@@H]3[C@@H](CO)N(C)c4ccc(-c5ccc(F)cc5)cc4[C@@H]32)cc1`, the AC35 in assay [1] is 7.15 µM. For `COc1ccc(CNc2nc(N3CCC[C@H]3CO)ncc2C(=O)NCc2ncccn2)cc1Cl`, in assay [2] (at 26 µM (top of the series)), the activity change, negative = cytotoxicity is -5.08% (inactive). Regarding `COc1cc([C@@H]2c3cc4c(cc3[C@@H](O[C@@H]3O[C@@H]5CO[C@@H](C)O[C@H]5[C@H](O)[C@H]3O)[C@H]3COC(=O)[C@H]23)OCO4)cc(OC)c1O`, the activity change, negative = cytotoxicity in assay [2] (at 1.35 µM (top of the series)) is -9.02% (inactive).

In the case of `C[C@]1(c2nc3c(C(N)=O)cccc3[nH]2)CCCN1`, the activity change, negative = cytotoxicity in assay [2] (at 26 µM (top of the series)) is 8.64% (inactive). Turning to `COc1ccc(S(=O)(=O)N2CC[C@@H]3[C@@H](CO)Nc4ccc(-c5ccc(C#N)cc5)cc4[C@@H]32)cc1`, in assay [1], the AC35 was 9.8 µM.

On to `CC(C)N1c2ccccc2C(c2ccc(F)cc2)C1/C=C/C(O)CC(O)CC(=O)O` (stereo not drawn), for which the AC35 in assay [1] is 23.9 µM. As to `Cc1ccc([N+](=O)[O-])cc1S(=O)(=O)N(C)C`, the activity change, negative = cytotoxicity in assay [2] (at 26 µM (top of the series)) was -2.86% (inactive). For `C=C([C@@H](O)[C@@H](C)O)[C@@H](OC)[C@]1(C)Cc2cc3cc(O[C@H]4CC(OC5CC(O)C(O)C(C)O5)C(O)C(C)O4)cc(O)c3c(O)c2C(=O)[C@H]1OC1CC(OC2CC(OC3CC(C)(O)C(O)C(C)O3)C(O)C(C)O2)C(O)C(C)O1` (stereo partly drawn), the AC35 in assay [1] was 0.111 µM. In the case of `COc1ccc(C2=Nn3c(nnc3-c3ccccc3OC)SC2)cc1OC`, the AC35 in assay [1] was 0.205 µM. In the case of `COc1ccccc1-c1nnc2n1N=C(c1ccc(O)c(O)c1)CS2`, in assay [1], the AC35 was 0.314 µM. As to `Clc1ccccc1-c1nnc2n1N=C(c1ccc3c(c1)OCO3)CS2`, the AC35 in assay [1] is 0.945 µM.

For the molecule `COc1cc(C2C(C#N)=C(N)Oc3cc(N(C)C)ccc32)cc2c1OCO2` (stereo not drawn), the AC35 in assay [1] was 0.0402 µM.

Consider `N#CC1=C(N)Oc2cc(N)ccc2C1c1ccc(Cl)cc1` (stereo not drawn), for which the activity change, negative = cytotoxicity in assay [2] (at 26 µM (top of the series)) is -4.23% (inactive).

`COc1ccc(-c2ccc3c(c2)[C@H]2[C@H](CCN2S(=O)(=O)c2ccc(OC)cc2)[C@@H](CO)N3)cc1`: in assay [1], the AC35 was 12.5 µM. On to `N#CC1=C(N)Oc2cc(N)ccc2C1c1ccccc1Cl` (stereo not drawn), for which, in assay [1], the AC35 is 32.9 µM.

Turning to `N#CC1=C(N)Oc2cc(OC(=O)c3ccccc3)ccc2C1c1cccc(Br)c1` (stereo not drawn), the AC35 in assay [1] is 19.4 µM. Take `Nc1ncnc2c1c(-c1cccc(OCc3ccccc3)c1)cn2C1CC(CN2CCCC2)C1` (stereo not drawn): the AC35 in assay [1] was 13.7 µM. In the case of `N#CC1=C(N)Oc2cc(N)ccc2C12C(=O)Nc1ccc(Br)cc12` (stereo not drawn), in assay [2] (at 26 µM (top of the series)), the activity change, negative = cytotoxicity is -0.931% (inactive). Same read-out and setting: the result for `CC1(C)CC(c2nc(-c3ccc4ccc(-c5ccccc5)nc4c3)c3c(N)nccn23)C1` reads -21.6% (inactive). With `COc1ccc(C(=O)CC2(O)C(=O)Nc3c(Cl)ccc(Cl)c32)cc1` (stereo not drawn), the AC35 in assay [1] is 5.48 µM. For `COc1ccc(C2CNC(=O)C2)cc1OC1CCCC1` (stereo not drawn), the activity change, negative = cytotoxicity in assay [2] (at 26 µM (top of the series)) is 3.58% (inactive). Take `COc1ccc(S(=O)(=O)N2CC[C@@H]3[C@H](CO)Nc4ccc(-c5ccc(C#N)cc5)cc4[C@@H]32)cc1`: the AC35 in assay [1] was 10.7 µM. The same measure, in the same setting: the result for `Cc1cc(Nc2cc(N3CCN(C)CC3)nc(Sc3ccc(NC(=O)C4CC4)cc3)n2)n[nH]1` reads 10.2 µM; that for `Nc1ccn([C@@H]2O[C@H](CO)[C@H](O)C2O)c(=O)n1` (stereo partly drawn), 0.686 µM; that for `N#CC1=C(N)Oc2cc3c(cc2C1c1cccc(Br)c1)OCO3` (stereo not drawn), 0.0624 µM. Consider `Cn1cc(-c2ccncc2)c(-c2ccc(OCc3ccc4ccccc4n3)cc2)n1`, for which the AC35 in assay [1] was 19.3 µM. Turning to `COc1ccc(S(=O)(=O)N2CC[C@@H]3[C@@H](CO)Nc4ccc(-c5cccc(C#N)c5)cc4[C@@H]32)cc1`, in assay [1], the AC35 was 13.2 µM. Take `COc1ccc(S(=O)(=O)N(C(C)=O)c2ccc(OC(C)=O)c3ccccc23)cc1[N+](=O)[O-]`: the activity change, negative = cytotoxicity in assay [2] (at 26 µM (top of the series)) was -4.12% (inactive). As for `Cc1ccc(C2C(C#N)=C(N)Oc3cc(N)ccc32)cc1` (stereo not drawn), the activity change, negative = cytotoxicity in assay [2] (at 26 µM (top of the series)) is 2.98% (inactive). With `CN1CCN(CCOc2cc(OC3CCOCC3)c3c(Nc4c(Cl)ccc5c4OCO5)ncnc3c2)CC1`, the AC35 in assay [1] was 26.1 µM. On the same count and under the same terms, then `N#CC1=C(N)Oc2cc(N)ccc2C1c1ccc2ccccc2c1` (stereo not drawn), with 28.4 µM; and `COc1ccc(C2=Nn3c(nnc3-c3ccccc3F)SC2)cc1OC`, with 6.11 µM. Consider `CC[C@@]1(O)C(=O)OCc2c1cc1n(c2=O)Cc2cc3c(CN(C)C)c(O)ccc3nc2-1`, for which the activity change, negative = cytotoxicity in assay [2] (at 3 µM (top of the series)) was -28% (inactive). As for `Cc1ccccc1C1C(C#N)=C(N)Oc2cc(N)ccc21` (stereo not drawn), the activity change, negative = cytotoxicity in assay [2] (at 26 µM (top of the series)) is -2.49% (inactive).

Consider `COc1ccc(NC(=O)Nc2ccc3c(c2)C(=O)N([C@@H](C)CO)C[C@H](C)[C@H](CN(C)Cc2ccc4c(c2)OCO4)O3)cc1`, for which, in assay [2] (at 12 µM (top of the series)), the activity change, negative = cytotoxicity was -11.8% (inactive). Consider `CCN(CCO)CCCOc1ccc2c(Nc3cc(CC(=O)Nc4cccc(F)c4)[nH]n3)ncnc2c1`, for which the activity change, negative = cytotoxicity in assay [2] (at 1.6 µM (top of the series)) was -5.27% (inactive). As for `COc1ccc(C2=Nn3c(nnc3-c3ccccc3)SC2)cc1OC`, the activity change, negative = cytotoxicity in assay [2] (at 26 µM (top of the series)) was -5.8% (inactive). With `N#CC1=C(N)Oc2cc(N)ccc2C1c1ccccc1` (stereo not drawn), the AC35 in assay [1] is 22.9 µM. With `CC[C@]1(O)CC2CN(CCc3c([nH]c4ccccc34)[C@@](C(=O)OC)(c3cc4c(cc3OC)N(C=O)[C@H]3[C@@](O)(C(=O)OC)[C@H](OC(C)=O)[C@]5(CC)C=CCN6CC[C@]43[C@@H]65)C2)C1` (stereo partly drawn), in assay [1], the AC35 was 0.285 µM. On the same count and under the same terms, the result for `Cc1cccc(C2C(C#N)=C(N)Oc3cc(N)ccc32)c1` (stereo not drawn) reads 3.89 µM; that for `COc1ccccc1S(=O)(=O)N1CC[C@@H]2[C@@H](CO)Nc3ccc(-c4ccc(C#N)cc4)cc3[C@@H]21`, 22.6 µM. On the same count and under the same terms, then `COc1cccc2c1C(=O)c1c(O)c3c(c(O)c1C2=O)C[C@@](O)(C(=O)CO)C[C@@H]3O[C@H]1C[C@H](N)[C@H](O)[C@H](C)O1`, with 0.333 µM; and `N#CC1=C(N)Oc2cc(O)ccc2C1c1cccc(Br)c1` (stereo not drawn), with 11.4 µM; and `C[C@@]1(C(=O)Nc2ccc(F)nc2)CCCN1c1nc(Nc2cc(C3CC3)[nH]n2)c2cccn2n1`, with 3.48 µM. As for `CCC(C)(C)C(=O)O[C@H]1C[C@@H](C)C=C2C=C[C@H](C)[C@H](CC[C@@H]3C[C@@H](O)CC(=O)O3)[C@H]21`, the activity change, negative = cytotoxicity in assay [2] (at 26 µM (top of the series)) is 2.27% (inactive). With `COc1ccc(C2=Nn3c(nnc3-c3ccccc3Cl)SC2)cc1OC`, the AC35 in assay [1] was 3.06 µM.

In the case of `COC(=O)c1ccc(C2C(C#N)=C(N)Oc3cc(N)ccc32)cc1` (stereo not drawn), the activity change, negative = cytotoxicity in assay [2] (at 26 µM (top of the series)) was 4.1% (inactive). On to `CCc1c2c(nc3ccc(O)cc13)-c1cc3c(c(=O)n1C2)COC(=O)C3(O)CC` (stereo not drawn), for which the AC35 in assay [1] was 0.579 µM. For `COc1ccc(-c2cc(NC(C)=O)c3ncc(-c4ccc(OC)c(OC)c4)n3c2)cc1`, in assay [1], the AC35 was 29.9 µM. As for `Cc1nc(Nc2ncc(C(=O)Nc3c(C)cccc3Cl)s2)cc(N2CCN(CCO)CC2)n1`, the AC35 in assay [1] was 12.2 µM.

Regarding `COc1cccc(S(=O)(=O)N2CC[C@@H]3[C@@H](CO)Nc4ccc(-c5ccc(C#N)cc5)cc4[C@@H]32)c1`, in assay [1], the AC35 was 26.4 µM. As for `N#Cc1ccc(-c2ccc3c(c2)[C@H]2[C@H](CCN2S(=O)(=O)c2ccccc2F)[C@@H](CO)N3)cc1`, in assay [1], the AC35 is 17 µM. `COc1ccc(OC)c(-c2nnc3n2N=C(c2ccc(OC)c(OC)c2)CS3)c1`: the AC35 in assay [1] is 0.192 µM and 0.123 µM.
